Patent publication US6440964B1, “Compositions and methods for treating ophthalmic and otic infections” (priority 1998, dated 2002)
Converted amounts (≈) assume the structure as drawn. Like-named read-outs stand apart in the source and are kept apart here.

Key:
Microbacterium alconae = test: In vitro activity (MIC) by agar and broth dilution methods against clinical isolates; format: cell-based; details: for MIC: read-out: minimum inhibitory concentration (MIC)
Protocol: (§1) The activity levels were determined as MIC (minimum inhibitory concentration) values. In order to compare the activity of the compounds of the present invention to other antibiotics, MIC values for representatives quinolones, aminoglycosides, β-lactams and other types of antibiotics were also determined. […] The MCC numbers (e.g., “MCC 10647”) represent separate clinical isolates of the two Microbacterium species tested.

Microbacterium otitidis = test: as above; format: cell-based; details: for MIC: read-out: minimum inhibitory concentration (MIC)
Protocol: as §1

[1] = system: H influenzae/βlactamase negative; test: MIC90 of Moxifloxacin for bacteria associated with ophthalmic, otic and nasal infections; format: cell-based
Description: (§2) The concentrations of the antibiotics of formula (I) in the compositions of the present invention will vary depending on the intended use of the compositions (e.g., treatment of existing infections or prevention of post-surgical infections), and the relative antimicrobial activity of the specific antibiotic selected. The antimicrobial activity of antibiotics is generally expressed as the minimum concentration required to inhibit the growth of a specified pathogen. This concentration is also referred to as the “minimum inhibitory concentration” or “MIC”. The term “MIC90” refers to the minimum concentration of antibiotic required to inhibit the growth of ninety percent (90%) of the strains of a species. The concentration of an antibiotic required to totally kill a specified bacteria is referred to as the “minimum bactericidal concentration” or “MBC”.

[2] = system: H. influenzae/β-lactamase positive; test: as above; format: cell-based
Description: as §2

P. aeruginosa = test: as above; format: cell-based
Description: as §2

[3] = system: S. aureus/methicillin resistant; test: as above; format: cell-based
Description: as §2

[4] = system: S. aureus/methicillin sensitive; test: as above; format: cell-based
Description: as §2

[5] = system: S. aureus/quinolone resistant; test: as above; format: cell-based
Description: as §2

[6] = system: S. epidermidis/methicillin resistant; test: as above; format: cell-based
Description: as §2

[7] = system: S. epidermidis/methicillin sensitive; test: as above; format: cell-based
Description: as §2

[8] = system: S. pneumoniae/penicillin resistant; test: as above; format: cell-based
Description: as §2

[9] = system: S. pneumoniae/penicillin sensitive; test: as above; format: cell-based
Description: as §2

M. otitidis = test: as above; format: cell-based, Microbacterium otitidis
Description: as §2

M. alconae = test: as above; format: cell-based, Microbacterium alconae
Description: as §2

Molecule	MIC (Microbacterium alconae; clinical isolate MCC 11316) [µg/mL]	MIC (Microbacterium alconae; clinical isolate MCC 11558) [µg/mL]	MIC (Microbacterium alconae; clinical isolate MCC 11639) [µg/mL]	MIC (Microbacterium alconae; clinical isolate MCC 11653) [µg/mL]	MIC (Microbacterium alconae; clinical isolate MCC 11699) [µg/mL]	MIC (Microbacterium otitidis; clinical isolate MCC 10647) [µg/mL]	MIC (Microbacterium otitidis; clinical isolate MCC 10810) [µg/mL]	MIC (Microbacterium otitidis; clinical isolate MCC 10990) [µg/mL]	MIC (Microbacterium otitidis; clinical isolate MCC 11495) [µg/mL]	MIC (Microbacterium otitidis; clinical isolate MCC 11676) [µg/mL]	further results
O=C(N[C@H](CO)[C@H](O)c1ccc([N+](=O)[O-])cc1)C(Cl)Cl [Chloramphenicol]	16 (≈ 49.5 µM)	16 (≈ 49.5 µM)	16 (≈ 49.5 µM)	16 (≈ 49.5 µM)	16 (≈ 49.5 µM)	1 (≈ 3.09 µM)	1 (≈ 3.09 µM)	1 (≈ 3.09 µM)	1 (≈ 3.09 µM)	1 (≈ 3.09 µM)	
CCC[C@@H]1C[C@@H](C(=O)N[C@@H]([C@H]2O[C@H](SC)[C@H](O)[C@@H](O)[C@H]2O)[C@H](C)Cl)N(C)C1 [Clindamycin]	4 (≈ 9.41 µM)	4 (≈ 9.41 µM)	4 (≈ 9.41 µM)	4 (≈ 9.41 µM)	4 (≈ 9.41 µM)	0.03 (≈ 0.0706 µM)	0.03 (≈ 0.0706 µM)	0.03 (≈ 0.0706 µM)	0.03 (≈ 0.0706 µM)	0.03 (≈ 0.0706 µM)	
CC[C@H]1OC(=O)[C@H](C)[C@@H](O[C@H]2C[C@@](C)(OC)[C@@H](O)[C@H](C)O2)[C@H](C)[C@@H](O[C@@H]2O[C@H](C)C[C@H](N(C)C)[C@H]2O)[C@](C)(O)C[C@@H](C)C(=O)[C@H](C)[C@@H](O)[C@]1(C)O [Erythromycin]	1 (≈ 1.36 µM)	2 (≈ 2.73 µM)	2 (≈ 2.73 µM)	0.5 (≈ 0.681 µM)	0.5 (≈ 0.681 µM)	0.03 (≈ 0.0409 µM)	0.03 (≈ 0.0409 µM)	0.03 (≈ 0.0409 µM)	0.03 (≈ 0.0409 µM)	0.03 (≈ 0.0409 µM)	
CC1COc2c(N3CCN(C)CC3)c(F)cc3c(=O)c(C(=O)O)cn1c23 (stereo not shown) [Ofloxacin]	4 (≈ 11.1 µM)	4 (≈ 11.1 µM)	4 (≈ 11.1 µM)	4 (≈ 11.1 µM)	4 (≈ 11.1 µM)	16 (≈ 44.3 µM)	32 (≈ 88.6 µM)	8 (≈ 22.1 µM)	16 (≈ 44.3 µM)	8 (≈ 22.1 µM)	
Cc1onc(-c2ccccc2)c1C(=O)N[C@@H]1C(=O)N2[C@@H]1SC(C)(C)[C@@H]2C(=O)O [Oxacillin]	8 (≈ 19.9 µM)	16 (≈ 39.9 µM)	32 (≈ 79.7 µM)	32 (≈ 79.7 µM)	32 (≈ 79.7 µM)	2 (≈ 4.98 µM)	4 (≈ 9.96 µM)	2 (≈ 4.98 µM)	4 (≈ 9.96 µM)	2 (≈ 4.98 µM)	
CN(C)[C@@H]1C(O)=C(C(N)=O)C(=O)[C@@]2(O)C(O)=C3C(=O)c4c(O)cccc4[C@@](C)(O)[C@H]3C[C@@H]12 [Tetracycline]	1 (≈ 2.25 µM)	1 (≈ 2.25 µM)	1 (≈ 2.25 µM)	1 (≈ 2.25 µM)	1 (≈ 2.25 µM)	1 (≈ 2.25 µM)	1 (≈ 2.25 µM)	1 (≈ 2.25 µM)	1 (≈ 2.25 µM)	1 (≈ 2.25 µM)	
NC[C@H]1O[C@H](O[C@H]2[C@H](O)[C@@H](O[C@H]3O[C@H](CO)[C@@H](O)[C@H](N)[C@H]3O)[C@H](N)C[C@@H]2N)[C@H](N)C[C@@H]1O [Tobramycin]	16 (≈ 34.2 µM)	16 (≈ 34.2 µM)	16 (≈ 34.2 µM)	16 (≈ 34.2 µM)	16 (≈ 34.2 µM)	32 (≈ 68.4 µM)	4 (≈ 8.56 µM)	4 (≈ 8.56 µM)	4 (≈ 8.56 µM)	16 (≈ 34.2 µM)	
Gentamicin											minimum inhibitory concentration (MIC) (Microbacterium alconae; clinical isolate MCC 11316): 2.0 micrograms per milliliter; minimum inhibitory concentration (MIC) (Microbacterium alconae; clinical isolate MCC 11558): 2.0 micrograms per milliliter; minimum inhibitory concentration (MIC) (Microbacterium alconae; clinical isolate MCC 11639): 2.0 micrograms per milliliter; minimum inhibitory concentration (MIC) (Microbacterium alconae; clinical isolate MCC 11653): 2.0 micrograms per milliliter; minimum inhibitory concentration (MIC) (Microbacterium alconae; clinical isolate MCC 11699): 2.0 micrograms per milliliter; minimum inhibitory concentration (MIC) (Microbacterium otitidis; clinical isolate MCC 10647): 8.0 micrograms per milliliter; minimum inhibitory concentration (MIC) (Microbacterium otitidis; clinical isolate MCC 10810): 4.0 micrograms per milliliter; minimum inhibitory concentration (MIC) (Microbacterium otitidis; clinical isolate MCC 10990): 4.0 micrograms per milliliter; minimum inhibitory concentration (MIC) (Microbacterium otitidis; clinical isolate MCC 11495): 16 micrograms per milliliter; minimum inhibitory concentration (MIC) (Microbacterium otitidis; clinical isolate MCC 11676): 4.0 micrograms per milliliter
Moxifloxacin											MIC90 [1]: 0.06 µg/mL; MIC90 [2]: 0.06 µg/mL; MIC90 (P. aeruginosa): 8.0 µg/mL; MIC90 [3]: 4.0 µg/mL; MIC90 [4]: 0.13 µg/mL; MIC90 [5]: 4.0 µg/mL; MIC90 [6]: 4.0 µg/mL; MIC90 [7]: 0.25 µg/mL; MIC90 [8]: 0.25 µg/mL; MIC90 [9]: 0.25 µg/mL; MIC90 (M. otitidis): 2.0 µg/mL; MIC90 (M. alconae): 0.25 µg/mL
Neomycin											minimum inhibitory concentration (MIC) (Microbacterium alconae; clinical isolate MCC 11316): 1.0 micrograms per milliliter; minimum inhibitory concentration (MIC) (Microbacterium alconae; clinical isolate MCC 11558): 1.0 micrograms per milliliter; minimum inhibitory concentration (MIC) (Microbacterium alconae; clinical isolate MCC 11639): 1.0 micrograms per milliliter; minimum inhibitory concentration (MIC) (Microbacterium alconae; clinical isolate MCC 11653): 1.0 micrograms per milliliter; minimum inhibitory concentration (MIC) (Microbacterium alconae; clinical isolate MCC 11699): 1.0 micrograms per milliliter; minimum inhibitory concentration (MIC) (Microbacterium otitidis; clinical isolate MCC 10647): 8.0 micrograms per milliliter; minimum inhibitory concentration (MIC) (Microbacterium otitidis; clinical isolate MCC 10810): 2.0 micrograms per milliliter; minimum inhibitory concentration (MIC) (Microbacterium otitidis; clinical isolate MCC 10990): 2.0 micrograms per milliliter; minimum inhibitory concentration (MIC) (Microbacterium otitidis; clinical isolate MCC 11495): 8.0 micrograms per milliliter; minimum inhibitory concentration (MIC) (Microbacterium otitidis; clinical isolate MCC 11676): 2.0 micrograms per milliliter
Polymyxin B											minimum inhibitory concentration (MIC) (Microbacterium alconae; clinical isolate MCC 11316): 32.5 micrograms per milliliter; minimum inhibitory concentration (MIC) (Microbacterium alconae; clinical isolate MCC 11558): 32.5 micrograms per milliliter; minimum inhibitory concentration (MIC) (Microbacterium alconae; clinical isolate MCC 11639): 16 micrograms per milliliter; minimum inhibitory concentration (MIC) (Microbacterium alconae; clinical isolate MCC 11653): 16 micrograms per milliliter; minimum inhibitory concentration (MIC) (Microbacterium alconae; clinical isolate MCC 11699): 16 micrograms per milliliter; minimum inhibitory concentration (MIC) (Microbacterium otitidis; clinical isolate MCC 10647): 1040 micrograms per milliliter; minimum inhibitory concentration (MIC) (Microbacterium otitidis; clinical isolate MCC 10810): 260 micrograms per milliliter; minimum inhibitory concentration (MIC) (Microbacterium otitidis; clinical isolate MCC 10990): 260 micrograms per milliliter; minimum inhibitory concentration (MIC) (Microbacterium otitidis; clinical isolate MCC 11495): 1040 micrograms per milliliter; minimum inhibitory concentration (MIC) (Microbacterium otitidis; clinical isolate MCC 11676): 16 micrograms per milliliter
